Laboratory results as given in patent publication US9927437B2, “Treating neurodegenerative disease” (THE BRIGHAM AND WOMEN'S HOSPITAL, INC., priority 2013, dated 2018).

Legend:
[1] = tested on: B4GALT5/6; assay: Quantification of LacCer levels in the CNS (LC-MS/MS); format: in vivo, mouse; settings: NOD EAE
Experimental: Chemical standards of LacCer (d18:1/16:0) and LacCer (d18:1/18:0) were obtained from Avanti Polar Lipids. Quantification of LacCer (d18:1/16:0) and LacCer (d18:1/18:0) was achieved by LC-MS/MS analysis performed on an Agilent (Agilent Technologies, Santa Clara, Calif.) 6460 triple-quadrupole LC/MS/MS system. The fragments from the [M+H]^+ ions for LacCer and internal standard were subjected to collision induced dissociation and the two major types of fragment ions were monitored via electrospray ionization in the positive ion mode in multiple reaction monitoring (MRM) mode for each ion. These two MRM transitions corresponded to the loss of the neutral lactosyl moiety, and to the formation of the lactose ion. Specifically, the MRM transitions used for quantification for LacCer (d18:1/16:0) and LacCer(d18:1/18:0) were 862.5>[…] and 890.6>548.5, respectively. Secondary confirmatory MRM transitions for LacCer(d18:1/16:0) and LacCer(d18:1/18:0) of 862.5>264.3 and 890.6>264.3 were also monitored. Mass spectrometer parameter settings were gas temp (325° C.), gas flow (12 L/min), nebulizer (25 psi), sheath gas temp (400° C.), sheath gas flow (12 L/min), capillary voltage (4000v), and nozzle voltage (500v). Liquid chromatography conditions with an a Phenomenex Gemini C18 column 4.6×50 mm 5 μm particle size was used for separation. Chromatography method the following flow rate=0.4 mLs/min; solvent A=5 mM ammonium formate in 5% MeOH and 0.1% formic acid v/v/v; solvent B=80% 2-propanol, 15% methanol, 5% water and 0.1% formic acid (v/v/v/v). […] Standard curve mixture was analyzed at various concentrations between 0.10 nM to 3.3 μM in LacCer (d18:1/16:0) and an internal standard concentration of 1 μM. The lower limit of quantification was estimated at 1 nM and a R^2 of 0.9969 was obtained using linear regression analysis. […]
The brain tissue was weighed and homogenized using a Dounce homogenizer (VWR), in the extraction solvent using a Bligh and Dyer type liquid-liquid extraction. […] The dried sample was reconstituted in 100 μl of 2:1 chloroform-methanol, and analyzed using the HPLC-MS.

[2] = tested on: ccl2 promoter; assay: ChIP of NF-κB and IRF-1 at the ccl2 promoter in primary astrocytes; format: cell-based, mouse
Text: FIGS. 4a-m. B4GALT6 regulates ccl2 transcriptional activity in astrocytes. (a) Murine ccl2 promoter. (b) Luciferase activity in 293T cells transfected with the ccl2 luciferase reporter plus one of the following constructs encoding IRF-1, p65 or an empty control vector (Empty). Results are relative to secreted alkaline phosphatase activity, presented as fold induction from empty vector. Data from three independent experiments, statistical analysis by Student's t-test. (c) ChIP analysis of the interaction of NF-κB, and IRF-1 with the ccl2 promoter in primary cultured astrocytes, pre-treated with PDMP and LacCer and activated with LPS/IFNγ (as in FIG. 3), 2 hours following LPS/IFNγ induction. (d-h) Recruitment of inflammatory monocytes (defined either as of CD11b^+ Ly6C^high or CD11b^+CD45^high cells) to the CNS of EAE NOD mice treated with PDMP or vehicle, as in (FIG. 1k), analyzed by flow cytometry and presented as cell frequency (e, g) and total cell numbers (f, h). Representative data of three independent experiments. […] (i) The frequency and number of CD11b^+ Ly6C^high monocytes as determined in the CNS 10 days after the i.c.v. injection of astrocytes-specific shRNA lentivirus as in (FIG. 3j). […] (j) monocytes were pre-treated for 1 h with PDMP, LacCer, both (LacCer+PDMP), or vehicle, and monocytes chemotaxis was measured using a transwell chamber system. […]

## CCCCCCCCCC(=O)N[C@H](CN1CCOCC1)[C@H](O)c1ccccc1 [PDMP, D-threo-1-phenyl-2-decanoylamino-3-morpholino-1-propanol]
[1]; 20 mg/kg twice a day from day 40
  CNS LacCer levels: significant decrease
[2]; astrocytes activated with LPS/IFNγ, 2 hours
  recruitment of NF-κB and IRF-1 to the ccl2 promoter: arrested

## shB4galt6: lentivirus-delivered shRNA against b4galt6 (TRCN0000334278; SEQ ID NO:3) (guide CGATGGACTGAACAATTTATTCTCGAGAATAAATTGTTCAGTCCACG)
[1]; i.c.v. 1×10^7 IU lentivirus at day 35, 10 days after injection
  CNS LacCer levels: significant decrease

## lactosylceramide [LacCer]
[2]; LacCer + PDMP, LPS/IFNγ
  recruitment of NF-κB and IRF-1 to the ccl2 promoter, LacCer added to PDMP: abrogated
